Test results as given in patent US4959182A, “Method and compositions providing enhanced chemiluminescence from 1,2-dioxetanes” (priority 1989, dated 1990).
Structures can show the parent of a compound that is named as a salt. Where two headings read alike, the source gives them in different places.

Experiments:
[1] = Base-triggered chemiluminescence of dioxetanes 2a/2b in DMSO, water, CTAB micelles and micelles with fluorescent co-surfactant
Source text: The chemiluminescence quantum yield (.PHI.CL) for the decomposition of dioxetanes is defined as the ratio of einsteins of chemiluminescence emitted to moles of dioxetane decomposed. Sufficient energy is released during the reaction from the reaction enthalpy (ΔHR) plus the Arrhenius activation energy (Ea) to populate the singlet excited state of one of the carbonyl cleavage products. Therefore, the maximum quantum yield is 1.0. Another parameter of interest is the chemiexcitation quantum yield (.PHI.CE) which is defined as the ratio of excited states formed to dioxetane decomposed. The chemiexcitation quantum yield is related to the chemiluminescence quantum yield via the fluorescence quantum yield of the dioxetane cleavage (.PHI.F) through the equation: .phi.CL =.phi.CE X .phi.F.
(§1) The same procedure as those employed in the measurement of the decay kinetics was used for the determination of chemiluminescence quantum yields with the following modifications. An accurately measured aliquot of a dioxetane stock solution of known concentration was added to 3 mL of the pre-thermostatted organic solvent or aqueous buffer. The reaction was then triggered by adding the appropriate chemical reagent or enzyme. The total light intensity was integrated by a photon-counting luminometer using an RCA A-31034A gallium-arsenide PMT cooled to -78° C.
Spectra of the chemiluminescence from chemically or enzymatcally triggered dioxetanes were obtained by conducting the reaction in a 1-cm square quartz cuvette in the sample compartment of a Spex Fluorolog spectrofluorometer at ambient temperature. Correction for the decay of the chemiluminescence intensity during the wavelength scan was made by accumulating the spectrum in a ratio mode so that the observed spectrum was divided by the signal from an auxiliary detector (EMI 9781B) which measures the total signal as a function of time. The monochromator bandpass was typically 18 nm. For weakly emitting samples, several identical scans were performed and added together to improve the signal-to-noise ratio.
1. Triggering the Chemiluminescence of Hydroxy-Substituted Dioxetane 2a with Base.
2. […] Cationic surfactants such as cetyltrimethylammonium bromide (CTAB) can be used to increase rates for chemical triggering of chemiluminescence from appropriately substituted dioxetanes in aqueous solution. […] The dioxetane is solubilized in the micelles formed by the surfactant and NaOH is added to initiate the chemiluminescence. […] Typically, the experiments were carried out with [2b]=9.1×10^-5 M, [CTAB]=2×10^-3 M, and [OH^- ]=9.1×10^-5 M at 37° C.
Similar experiments were conducted with the benzothiazamide surfactant 4. […] Enzymatic Triggering of Phosphate-Substituted Dioxetane 2c.

[2] = type: physicochemical; details: for half-life: in xylene, read-out: t1/2 at 25° C. (converted); for half-life / k(sec^-1) at 25° C.: 25° C.
Experimental: Rates for thermal decomposition of the stable dioxetanes were monitored by the decay of chemiluminescence of aerated solutions. A cylindrical Pyrex vial equipped with magnetic stir bar was filled with 3-4 mL of the reaction solvent, sealed with a Teflon-lined screw cap and placed in the thermostatted sample block of the chemiluminescence-measuring luminometer. Temperature control was provided by an external circulating water bath. Appropriate values for the instrument gain and optical slit size were selected. […]. The vial was sealed with a Teflon-lined screw cap to prevent evaporation when high temperatures were used. Measurement of the signal was begun by opening the shutter. The chemiluminescent decay was generally recorded for at least three half-lives. Calculation of the first-order rate constant (k) from the In (Intensity) vs. time data was performed by a computer program utilizing a standard least-squares treatment. The correlation coefficient (r) was typically at least 0.999 and k varied less than 5% between replicate samples.
Activation parameters for decomposition of the dioxetanes were calculated from plots of In k vs. 1/T (Arrhenius eq.) or In k/t vs. 1/T (Eyring eq.) by a standard least-squares linear regression analysis.
Activation Energies for Thermal Decomposition of Dioxetanes

[3] = cited from earlier work
[4] = tested on: Alkaline Phosphatase from Human Blood Serum; test: Triggering the chemiluminescence of 2c with alkaline phosphatase from human blood serum; type: biochemical
Experimental: 1. Triggering the Chemiluminescence of 2c with Alkaline Phosphatase from Human Blood Serum. A stock solution of dioxetane 2c was prepared in dioxane/water (1:1 v/v) by photooxygenation of 1c. A sample of fresh blood was drawn from a healthy donor and the red blood cells removed by centrifugation to provide serum for the experiments. Treatment of 3 mL of a 10^-5 M solution of 2c in 0.75 M 2-amino-2-methyl-1-propanol (221) buffer (pH 10.3) at 37° C. with 100 μL of serum led to the typical intensity vs. time profile shown in FIG. 3 where the serum is injected at time zero. Under these conditions the light intensity reaches a constant level of approximately 2.3×10^4 counts/sec. The background luminescence signal from non-enzymatic hydrolysis of 2c is less than 0.05% of the enzyme-generated value. […] The light intensity at any other time point can also be conveniently used to provide a direct measure of the enzyme concentration (FIG. 5). [drawing 31]

[5] = tested on: Alkaline Phosphatase from Bovine Intestinal Mucosa; test: Triggering the chemiluminescence of 2c with alkaline phosphatase from bovine intestinal mucosa; type: biochemical
Experimental: as §1
2. Triggering the Chemiluminescence of 2c with Alkaline Phosphatase from Bovine Intestinal Mucosa. Alkaline phosphatase from bovine intestinal mucosa was obtained from Sigma Chemical Co. as a suspension of 5.1 mg of protein per mL of 3.2 M (NH4)2 SO4 solution. […] 3. Triggering the Chemiluminescence of 2c with Alkaline Phosphatase: Enhanced Chemiluminescence Efficiency via Intermolecular Energy Transfer in Aqueous Micelles. […] Alkaline phosphatase experiments with dioxetane 2c were conducted at 37° C. with 3 mL of a solution containing: 2c (4.3×10^-5 M), 221 buffer (0.75 M, pH 9.1), Mg(OAc)2 (8.0×10^-4 M), CTAB (1.13×10^-3 M), and fluorescein surfactant 3 (5.6×10^-5 M).
To test the sensitivity of this chemiluminescence method for evaluating concentrations of alkaline phosphatase in solution, a series of experiments were carried out using enzyme stock solutions prepared by dilutions of the commercial sample obtained from Sigma. A conservative estimate of the concentration of phosphatase in the sample was made by assuming that the 5.1 mg of protein per mL in the sample was 100% pure alkaline phosphatase. A molecular weight of 140,000 as also used in calculating molar amounts of enzyme. The conditions were the same as described above with 2c, CTAB, and fluorescer 3 except that the final quantities of enzyme in the 3 mL solutions were:
Enzymatic triggering experiments such as those described above were also carried out in Immumlon™ microtitre wells from Dynatech, Inc. made of transparent polystyrene. The wells were used individually and placed in a light-tight holder which could be thermostatted. The chemiluminescence was detected at the bottom of the well using a fiber optic connected to the photon-counting luminometer described previously. This experimental set-up allowed much smaller reaction volumes to be used. For example, a series of experiments using dioxetane 2c, CTAB, and 3 in 200 μL of 221 buffer with amounts of alkaline phosphatase ranging from 5×10^-15 to 2×10^-18 moles (or 2 attomoles) were carried out. […] A more realistic assumption for the purity of the enzyme sample might be 10%.

[6] = tested on: S-antigen; test: Chemiluminescent ELISA for S-antigen with dioxetane 2c and alkaline phosphatase conjugate
Source text: 4. Chemiluminescent Enzyme-Linked Assays. Enzymatic triggering of appropriately substituted dioxetanes provides an ultrasensitive detection method for enzyme-linked biological assays. For example, phosphate-substituted dioxetane 2c can be used with enzyme linked immunoassays and DNA probes that utilize alkaline phosphatase as the marker for detection. Previous detection methods make use of substrates which develop a color or become fluorescent upon reaction with this enzyme. The sensitivity of the chemiluminescent technique with dioxetane 2c is illustrated by an enzyme-linked immunosorbant assay (ELISA) for the retinal protein, S-antigen. Using procedures of L. A. Donoso (L. A. Donoso, C. F. Merryman, K. E. Edelberg, R. Naids, and C. Kalsow, Investigative Ophthalmology & Visual Science, 26, 561 (1985)), a series of 7 Immulon™ wells were coated with varying amounts of S-antigen (112, 56, 28, 14, 7, 3, 1.3 ng), reacted with a monoclonal antibody (MAbA9-C6) developed in mouse, and finally reacted with anti-mouse IgG coupled to alkaline phosphatase. A chemiluminescence assay of each well was then conducted individually by adding 100 μL of 221 buffer (0.75 M, pH 9.1) containing Mg(OAc)2 (8.0×10^-4 M), CTAB (1.13×10^-3 M), and fluorescein surfactant 3 (5.6×10^-5 M). […] The reagent background luminescence is very low and constant at 15 - 20 counts/sec (FIG. 13). […] Following the experiments with the luminometer, the wells containing the same solution were subsequently used for a photographic detection experiment (FIG. 15). The 7 wells were placed in a holder and incubated for 30 minutes at 37° C. and then photographed at that temperature with ASA 3000 Polaroid™Type 57 film for 15 min in a light-tight incubator. […] The reproducibility of the photographic assay is illustrated in FIG. 16. Four wells coated with 50 ng of antigen were treated with buffer and dioxetane as above, incubated for 1 hour at 45° C., and then photographed with the film for 30 sec at that temperature.

[7] = Fluoride-triggered chemiluminescence of silyl-protected dioxetane
Source text: However, the chemiluminescent decomposition of this dioxetane can be conveniently triggered at room temperature by removal of the silyl-protecting with fluoride ion to generate the unstable, aryloxide form which cleaves to yield intense blue light.

[8] = base, CTAB 1.5×10^-3 M with fluorescein surfactant 3 (9×10^-5 M), 37° C.
[9] = thermal decomposition in xylene
[10] = benzothiazamide surfactant 4 as co-surfactant, similar experiments with 2b/CTAB/base

SMILES: COC1(c2cccc(OC(C)=O)c2)OOC12C1CC3CC(C1)CC2C3 (centres unmarked) [2b, 4-(3-Acetoxyphenyl)-4-methoxyspiro[1,2-dioxetane-3,2'-adamantane]]
- increase in the chemiluminescence quantum yield ([1]; CTAB above cmc vs water, 37° C.): 19 fold
- chemiluminescence quantum yield (.PHI.CL) ([1]; base in DMSO): 0.25
- light yield (chemiluminescence quantum yield) ([1]; base in water): 8.9×10^-6
- chemiluminescence efficiency [1, 8]: 1.4%
- chemiluminescence quantum yield (.PHI.CL) [1, 8]: 0.014
- chemiluminescence quantum yield (.PHI.Cl) ([1]; base, CTAB above critical micelle concentration, 37° C.): 1.7×10^-4
- increase over the luminescence in the absence of CTAB and 3 ([1]; base, CTAB with fluorescein surfactant 3, 37° C.): 500 fold
- half-life [2]: 4750 days
- Ea [2, 9]: 30.4
- Log A [2, 9]: 13.6
- k(sec^-1) at 25° C. [2, 9]: 1.73e-09 s⁻¹

SMILES: CCCCCCCCCCCCCCCCNC(=O)c1nc2ccc(O)cc2s1 [compound 4, 1-Hexadecyl-6-hydroxy-2-benzothiazamide]
- chemiluminescence efficiency [1, 10]: 0.3%
- λmax [1, 10]: 506 nm

SMILES: Oc1ccc(C23OCCOC2(c2ccccc2)OO3)cc1 (centres unmarked) [deprotonated dioxetane (X=O^-)]
- decomposition rate relative to protonated form (X=OH) ([3]; 25° C.): 5.7×10^6 times

SMILES: COC1(c2cccc(OP(=O)(O)O)c2)OOC12C1CC3CC(C1)CC2C3 (centres unmarked) [2c, 4-Methoxy-4-(3-phosphatephenyl)spiro[1,2-dioxetane-3,2'-adamantane], disodium salt]
- light intensity (constant level) ([4]; 10^-5 M 2c, 100 μL serum, 221 buffer pH 10.3, 37° C.): approximately 2.3×10^4 counts/sec
- light intensity at the plateau vs enzyme concentration ([4]; 100 to 1 μL of serum): directly proportional to the enzyme concentration
- background luminescence signal from non-enzymatic hydrolysis, of enzyme-generated value ([4]; 221 buffer pH 10.3, 37° C.): less than 0.05%
- period of chemiluminescence ([5]; 12 pg/mL protein, CTAB and 3, 37° C.): 45 min
- detection of alkaline phosphatase ([5]; 200 μL 221 buffer, CTAB and 3, enzyme purity of 10% assumed): less than 0.2 attomoles
- chemiluminescence quantum yield ([5]; 221 buffer pH 9.1, 37° C., no CTAB): 3.1×10^-5
- period over which light intensity increases ([5]; CTAB and fluorescer, depending on enzyme concentration): 30 to 60 min
- background signal from non-enzymatic hydrolysis ([5]; buffer/co-micelle environment): only a few
- chemiluminescence quantum yield (.PHI.Cl) ([5]; with CTAB (1.13×10^-3 M)): 2.1×10^-4
- increase compared to the enzymatic reaction in the absence of CTAB and 3 ([5]; with CTAB and fluorescein surfactant 3): 500 fold
- chemiluminescence quantum yield (.PHI.Cl) ([5]; with CTAB and fluorescein surfactant 3 (5.6×10^-5 M), pH 9.1, 37° C.): 0.015
- chemiluminescence efficiency ([5]; with CTAB and fluorescein surfactant 3, pH 9.1, 37° C.): 1.5%
- integrated light intensity vs amount of antigen ([6]; 1.3 to 112 ng S-antigen): correlates with the amount of antigen coated on the well
- reagent background luminescence ([6]; 2c 1.36×10^-4 M, CTAB and 3, pH 9.1, 37° C.): 15 - 20 counts/sec
- photographic detection, control well with buffer and dioxetane only ([6]; ASA 3000 Polaroid film): not visible
- Ea ([2]; Arrhenius plot, o-xylene, 80° to 120° C.): 32.5 kcal/mol
- half-life [2]: 6940 days
- Ea [2, 9]: 32.5
- Log A [2, 9]: 14.9
- k(sec^-1) at 25° C. [2, 9]: 1.19e-09 s⁻¹

SMILES: COC1(c2cccc(O)c2)OOC12C1CC3CC(C1)CC2C3 (centres unmarked) [aryloxide-substituted dioxetane]
- half-life (aryloxide form, 25° C.): 5 s

SMILES: Oc1ccc(C23OCCOC2(c2ccccc2)OO3)cc1 (centres unmarked) [hydroxy-substituted dioxetane (X=OH)]
- half-life for decomposition at room temperature ([3]; 25° C.): 2.38 days
- luminescence with base ([3]; base at -30° C.): a flash of blue light
- luminescence upon heating ([3]; elevated temperatures): very low levels of luminescence

SMILES: COC1(c2cccc(O[Si](C)(C)C(C)(C)C)c2)OOC12C1CC3CC(C1)CC2C3 (centres unmarked)
- decomposition on the laboratory bench (in o-xylene, several months): no detectable decomposition
- activation energy (thermal decomposition): 28.4 kcal/mol
- chemiluminescence efficiency [7]: 25%
- chemiluminescence quantum yield [7]: 0.25
- efficiency for the formation of the singlet excited ester ([7]; corrected for fluorescence quantum yield of the ester): 57%
- maximum of the chemiluminescence spectrum ([7]; fluoride, DMSO): 470 nm
